{
  "source": "patent US12433903B2",
  "about": "(priority 2021, dated 2025)",
  "test": "Quantification of CBG and CBG glucuronide in rat plasma and brain after oral gavage",
  "assay_type": "in vivo, Sprague-Dawley rat",
  "settings": "for CBG concentration in rat plasma (Day 21) / CBG concentration in rat brain tissue (Day 21) / CBG concentration in rat plasma (Day 1): individual rats; for CBG concentration in rat brain tissue (Day 21) / CBG concentration in rat brain tissue (Day 21), Average: 24 hrs post Rx",
  "method": "The purpose of this study was to quantify cannabigerol (CBG) in rat plasma and brain.\nSeven- to nine-week-old male and female Sprague-Dawley received either a single dose or once daily dosing for 21 clays of vehicle or CBG at three different dosage levels as shown in the Table below.\nApproximately 0.2-0.25 mL blood was collected during the first 24 hours after the single dose, and at multiple times points after the terminal dose for the animals receiving daily dosing for 21 days. Liver, kidney, and colon samples were collected and fixed in 10% NBF for 48 hours, then stored in 70% ethanol at room temperature. Brain samples were collected and flash frozen.\nAnalytical curves were constructed using non-zero standards with CBG concentration ranging from 0.0025 to 2.500 μg/mL and […] in blank rat plasma samples and 1.0 to 2500 ng/mL in blank brain tissues. A blank sample was used to exclude contamination.\nInstrument Used: AB SCIEX QTRAP 4500/Shimadzu Prominence LC",
  "note": "Several values for one entry are separate records, joined by “and”; a condition that tells them apart may be missing. Equal values may be shown once.",
  "data": [
    {"smiles": "CCCCCc1cc(O)c(C/C=C(\\C)CCC=C(C)C)c(O)c1", "note": "[CBG, cannabigerol]", "values": [
      {"measurement": "CBG concentration in rat plasma (Day 21)", "setting": "CBG 10 mg/kg oral gavage once daily, 15 min post Rx", "result": "BLQ (Below Limit of Quantification (2.5 ng/mL))"},
      {"measurement": "CBG concentration in rat plasma (Day 21)", "setting": "CBG 10 mg/kg oral gavage once daily, 30 min post Rx", "result": "BLQ (Below Limit of Quantification (2.5 ng/mL))"},
      {"measurement": "CBG concentration in rat plasma (Day 21)", "setting": "CBG 10 mg/kg oral gavage once daily, 1 hr post Rx", "result": "BLQ (Below Limit of Quantification (2.5 ng/mL)) (4×) and 1.67 ng/mL and 2.75 ng/mL"},
      {"measurement": "CBG concentration in rat plasma (Day 21)", "setting": "CBG 10 mg/kg oral gavage once daily, 2 hr post Rx", "result": "BLQ (Below Limit of Quantification (2.5 ng/mL)) (3×) and 5.6 ng/mL and 9.5 ng/mL and 2.72 ng/mL"},
      {"measurement": "CBG concentration in rat plasma (Day 21)", "setting": "CBG 10 mg/kg oral gavage once daily, 4 hr post Rx", "result": "BLQ (Below Limit of Quantification (2.5 ng/mL)) (4×) and 4.73 ng/mL and 8.49 ng/mL"},
      {"measurement": "CBG concentration in rat plasma (Day 21)", "setting": "CBG 10 mg/kg oral gavage once daily, 8 hr post Rx", "result": "BLQ (Below Limit of Quantification (2.5 ng/mL)) (4×) and 2.55 ng/mL and 4.18 ng/mL"},
      {"measurement": "CBG concentration in rat plasma (Day 21)", "setting": "CBG 10 mg/kg oral gavage once daily, 24 hr post Rx", "result": "BLQ (Below Limit of Quantification (2.5 ng/mL))"},
      {"measurement": "CBG concentration in rat brain tissue (Day 21)", "setting": "CBG 10 mg/kg oral gavage once daily", "result": "BLQ (Below Limit of Quantification (1.0 ng/g))"},
      {"measurement": "CBG concentration in rat plasma (Day 1)", "setting": "CBG 10 mg/kg oral gavage once, 15 min post Rx", "result": "BLQ (Below Limit of Quantification (2.5 ng/mL))"},
      {"measurement": "CBG concentration in rat plasma (Day 1)", "setting": "CBG 10 mg/kg oral gavage once, 30 min post Rx", "result": "BLQ (Below Limit of Quantification (2.5 ng/mL))"},
      {"measurement": "CBG concentration in rat plasma (Day 1)", "setting": "CBG 10 mg/kg oral gavage once, 1 hr post Rx", "result": "5.3 ng/mL and BLQ (Below Limit of Quantification (2.5 ng/mL)) (2×) and 18.6 ng/mL and 7.3 ng/mL"},
      {"measurement": "CBG concentration in rat plasma (Day 1)", "setting": "CBG 10 mg/kg oral gavage once, 2 hr post Rx", "result": "10.7 ng/mL and BLQ (Below Limit of Quantification (2.5 ng/mL)) and 14.6 ng/mL and 11.5 ng/mL and 12.0 ng/mL"},
      {"measurement": "CBG concentration in rat plasma (Day 1)", "setting": "CBG 10 mg/kg oral gavage once, 4 hr post Rx", "result": "BLQ (Below Limit of Quantification (2.5 ng/mL))"},
      {"measurement": "CBG concentration in rat plasma (Day 1)", "setting": "CBG 10 mg/kg oral gavage once, 8 hr post Rx", "result": "BLQ (Below Limit of Quantification (2.5 ng/mL))"},
      {"measurement": "CBG concentration in rat plasma (Day 1)", "setting": "CBG 10 mg/kg oral gavage once, 24 hr post Rx", "result": "BLQ (Below Limit of Quantification (2.5 ng/mL))"},
      {"measurement": "CBG concentration in rat plasma (Day 21)", "setting": "CBG 30 mg/kg oral gavage once daily, 15 min post Rx", "result": "BLQ (Below Limit of Quantification (2.5 ng/mL)) (3×) and 14.7 ng/mL and 4.51 ng/mL and 9.12 ng/mL"},
      {"measurement": "CBG concentration in rat plasma (Day 21)", "setting": "CBG 30 mg/kg oral gavage once daily, 30 min post Rx", "result": "BLQ (Below Limit of Quantification (2.5 ng/mL))"},
      {"measurement": "CBG concentration in rat plasma (Day 21)", "setting": "CBG 30 mg/kg oral gavage once daily, 1 hr post Rx", "result": "BLQ (Below Limit of Quantification (2.5 ng/mL))"},
      {"measurement": "CBG concentration in rat plasma (Day 21)", "setting": "CBG 30 mg/kg oral gavage once daily, 2 hr post Rx", "result": "BLQ (Below Limit of Quantification (2.5 ng/mL))"},
      {"measurement": "CBG concentration in rat plasma (Day 21)", "setting": "CBG 30 mg/kg oral gavage once daily, 4 hr post Rx", "result": "BLQ (Below Limit of Quantification (2.5 ng/mL))"},
      {"measurement": "CBG concentration in rat plasma (Day 21)", "setting": "CBG 30 mg/kg oral gavage once daily, 8 hr post Rx", "result": "BLQ (Below Limit of Quantification (2.5 ng/mL))"},
      {"measurement": "CBG concentration in rat plasma (Day 21)", "setting": "CBG 30 mg/kg oral gavage once daily, 24 hr post Rx", "result": "BLQ (Below Limit of Quantification (2.5 ng/mL))"},
      {"measurement": "CBG concentration in rat brain tissue (Day 21)", "setting": "CBG 30 mg/kg oral gavage once daily", "result": "BLQ (Below Limit of Quantification (1.0 ng/g)) (5×) and 43.8 ng/g"},
      {"measurement": "CBG concentration in rat plasma (Day 1)", "setting": "CBG 30 mg/kg oral gavage once, 15 min post Rx", "result": "3.8 ng/mL and 7.6 ng/mL and BLQ (Below Limit of Quantification (2.5 ng/mL)) (4×)"},
      {"measurement": "CBG concentration in rat plasma (Day 1)", "setting": "CBG 30 mg/kg oral gavage once, 30 min post Rx", "result": "15.2 ng/mL and BLQ (Below Limit of Quantification (2.5 ng/mL)) (5×)"},
      {"measurement": "CBG concentration in rat plasma (Day 1)", "setting": "CBG 30 mg/kg oral gavage once, 1 hr post Rx", "result": "22.9 ng/mL and 32.3 ng/mL and 32.5 ng/mL and 1.08 ng/mL and 31.2 ng/mL and 35.9 ng/mL"},
      {"measurement": "CBG concentration in rat plasma (Day 1)", "setting": "CBG 30 mg/kg oral gavage once, 2 hr post Rx", "result": "BLQ (Below Limit of Quantification (2.5 ng/mL)) (2×) and 11.0 ng/mL and 26.6 ng/mL and 78.6 ng/mL and 36.0 ng/mL"},
      {"measurement": "CBG concentration in rat plasma (Day 1)", "setting": "CBG 30 mg/kg oral gavage once, 4 hr post Rx", "result": "24.5 ng/mL and BLQ (Below Limit of Quantification (2.5 ng/mL)) (2×) and 54.3 ng/mL and 62.1 ng/mL and 48.3 ng/mL"},
      {"measurement": "CBG concentration in rat plasma (Day 1)", "setting": "CBG 30 mg/kg oral gavage once, 8 hr post Rx", "result": "BLQ (Below Limit of Quantification (2.5 ng/mL))"},
      {"measurement": "CBG concentration in rat plasma (Day 1)", "setting": "CBG 30 mg/kg oral gavage once, 24 hr post Rx", "result": "BLQ (Below Limit of Quantification (2.5 ng/mL)) (5×) and 2.75 ng/mL"},
      {"measurement": "CBG concentration in rat plasma (Day 21)", "setting": "CBG 100 mg/kg oral gavage once daily, 15 min post Rx", "result": "BLQ (Below Limit of Quantification (2.5 ng/mL)) (4×) and 41.6 ng/mL"},
      {"measurement": "CBG concentration in rat plasma (Day 21)", "setting": "CBG 100 mg/kg oral gavage once daily, 30 min post Rx", "result": "BLQ (Below Limit of Quantification (2.5 ng/mL)) (3×) and 178.5 ng/mL and 122.5 ng/mL"},
      {"measurement": "CBG concentration in rat plasma (Day 21)", "setting": "CBG 100 mg/kg oral gavage once daily, 1 hr post Rx", "result": "BLQ (Below Limit of Quantification (2.5 ng/mL)) (3×) and 225.5 ng/mL and 206.0 ng/mL"},
      {"measurement": "CBG concentration in rat plasma (Day 21)", "setting": "CBG 100 mg/kg oral gavage once daily, 2 hr post Rx", "result": "307.0 ng/mL and 201.0 ng/mL and 278.0 ng/mL and BLQ (Below Limit of Quantification (2.5 ng/mL)) and 275.5 ng/mL"},
      {"measurement": "CBG concentration in rat plasma (Day 21)", "setting": "CBG 100 mg/kg oral gavage once daily, 4 hr post Rx", "result": "BLQ (Below Limit of Quantification (2.5 ng/mL)) and 171.0 ng/mL and 129.5 ng/mL and 185.0 ng/mL and 905.0 ng/mL and 417.0 ng/mL"},
      {"measurement": "CBG concentration in rat plasma (Day 21)", "setting": "CBG 100 mg/kg oral gavage once daily, 8 hr post Rx", "result": "BLQ (Below Limit of Quantification (2.5 ng/mL)) (2×) and 215.0 ng/mL and 905.0 ng/mL and 3095.0 ng/mL and 373.0 ng/mL"},
      {"measurement": "CBG concentration in rat plasma (Day 21)", "setting": "CBG 100 mg/kg oral gavage once daily, 24 hr post Rx", "result": "BLQ (Below Limit of Quantification (2.5 ng/mL))"},
      {"measurement": "CBG concentration in rat brain tissue (Day 21), Average", "setting": "CBG 100 mg/kg oral gavage once daily, female rats", "result": 299.27, "unit": "ng/g"},
      {"measurement": "CBG concentration in rat brain tissue (Day 21)", "setting": "CBG 100 mg/kg oral gavage once daily", "result": "53.0 ng/g and 108.0 ng/g and 1460.0 ng/g and 271.0 ng/g and 580.0 ng/g and 46.8 ng/g"},
      {"measurement": "CBG concentration in rat brain tissue (Day 21), Average", "setting": "CBG 100 mg/kg oral gavage once daily, male rats", "result": 540.33, "unit": "ng/g"},
      {"measurement": "CBG concentration in rat plasma (Day 1)", "setting": "CBG 100 mg/kg oral gavage once, 15 min post Rx", "result": "BLQ (Below Limit of Quantification (2.5 ng/mL))"},
      {"measurement": "CBG concentration in rat plasma (Day 1)", "setting": "CBG 100 mg/kg oral gavage once, 30 min post Rx", "result": "BLQ (Below Limit of Quantification (2.5 ng/mL))"},
      {"measurement": "CBG concentration in rat plasma (Day 1)", "setting": "CBG 100 mg/kg oral gavage once, 1 hr post Rx", "result": "BLQ (Below Limit of Quantification (2.5 ng/mL))"},
      {"measurement": "CBG concentration in rat plasma (Day 1)", "setting": "CBG 100 mg/kg oral gavage once, 2 hr post Rx", "result": "BLQ (Below Limit of Quantification (2.5 ng/mL))"},
      {"measurement": "CBG concentration in rat plasma (Day 1)", "setting": "CBG 100 mg/kg oral gavage once, 4 hr post Rx", "result": "BLQ (Below Limit of Quantification (2.5 ng/mL)) (4×) and 119.0 ng/mL and 143.0 ng/mL"},
      {"measurement": "CBG concentration in rat plasma (Day 1)", "setting": "CBG 100 mg/kg oral gavage once, 8 hr post Rx", "result": "BLQ (Below Limit of Quantification (2.5 ng/mL))"},
      {"measurement": "CBG concentration in rat plasma (Day 1)", "setting": "CBG 100 mg/kg oral gavage once, 24 hr post Rx", "result": "BLQ (Below Limit of Quantification (2.5 ng/mL))"},
      {"measurement": "concentration of CBG in plasma (in words)", "setting": "oral gavage 10-100 mg/kg, Day 1 and Day 21", "result": "low or below the level of quantitation (BLQ)"},
      {"measurement": "CBG in brain (in words)", "setting": "oral gavage, Day 21", "result": "not detected"},
      {"measurement": "first pass metabolism to the glucuronide (in words)", "setting": "upon oral administration", "result": "very high"}
    ]}
  ]
}
